Experimental data reported in patent US12691101B2, “Compound and method for preventing or treating of respiratory diseases comprising the same as an active ingredient” (YONSEI UNIVERSITY, UNIVERSITY - INDUSTRY FOUNDATION (UIF), priority 2019, dated 2026).

Molecular target: T1, human wild-type (WT)-pendrin (Homo sapiens, UniProt O43511)
T1 construct: expressed in transfected cells
T1 sequence (O43511 1-780): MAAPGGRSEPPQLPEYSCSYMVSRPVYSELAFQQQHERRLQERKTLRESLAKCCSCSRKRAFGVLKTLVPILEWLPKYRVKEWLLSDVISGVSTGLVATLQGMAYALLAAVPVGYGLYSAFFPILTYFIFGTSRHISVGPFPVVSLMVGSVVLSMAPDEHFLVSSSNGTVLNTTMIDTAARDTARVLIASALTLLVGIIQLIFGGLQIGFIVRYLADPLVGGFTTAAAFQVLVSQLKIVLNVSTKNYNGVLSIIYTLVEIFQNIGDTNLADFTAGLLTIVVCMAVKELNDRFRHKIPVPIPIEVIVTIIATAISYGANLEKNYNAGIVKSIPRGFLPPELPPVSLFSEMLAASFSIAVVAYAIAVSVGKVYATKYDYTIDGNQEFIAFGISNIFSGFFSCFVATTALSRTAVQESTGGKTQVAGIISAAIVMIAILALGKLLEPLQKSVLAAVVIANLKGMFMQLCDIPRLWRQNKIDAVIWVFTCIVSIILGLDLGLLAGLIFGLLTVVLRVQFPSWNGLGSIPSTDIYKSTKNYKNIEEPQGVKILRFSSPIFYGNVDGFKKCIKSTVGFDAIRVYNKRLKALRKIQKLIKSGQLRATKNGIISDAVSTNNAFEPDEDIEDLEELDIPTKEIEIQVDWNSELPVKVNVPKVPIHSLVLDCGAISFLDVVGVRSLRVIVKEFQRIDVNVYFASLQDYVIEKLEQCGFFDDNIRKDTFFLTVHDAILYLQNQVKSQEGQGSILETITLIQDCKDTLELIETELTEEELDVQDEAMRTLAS
Experiment: Pendrin-mediated Cl^−/I^− exchange activity, YFP fluorescence in CHO-K1 cells
Format: cell-based
Details: CHO-K1, 30 μM; read-out: Pendrin inhibitory activity at 30 μM (%)

SMILES | inhibition at 30 µM [%]
O=C1OC(c2ccc(Oc3ccccc3)cc2)=NC1=Cc1cccs1 [F95, 2-(4-Phenoxyphenyl)-4-(thiophen-2-ylmethylene)oxazol-5(4H)-one] | 3.8
Cc1ccc(C=C2N=C(c3ccc(C(C)(C)C)cc3)OC2=O)s1 [F96, 2-(4-(tert-butyl)phenyl)-4-((5-methylthiophen-2-yl)methylene)oxazol-5(4H)-one] | 3.4
O=C1OC(c2ccc3c(c2)OCO3)=NC1=Cc1cccs1 [F97, 2-(Benzo[d][1,3]dioxoyl-5-yl)-4-(thiophen-2-ylmethylene)oxazol-5(4H)-one] | 2.9
O=C1OC(c2ccc(N3CCCC3=O)cc2)=NC1=Cc1cccs1 [F98, 2-(4-(2-oxopyrrolidin-1-yl)phenyl)-4-(thiophen-2-ylmethylene)oxazol-5 (4H)-one] | 3.3
COc1ccc(C2=NC(=Cc3ccc(Cl)s3)C(=O)O2)cc1 [F99, 4-((5-Chlorothiophen-2-yl)methylene)-2-(4-methoxyphenyl)oxazol-5(4H)-one] | 2.4
O=C1OC(c2ccc3c(c2)OCO3)=NC1=Cc1ccc(N2CCCCC2)s1 [F100, 2-(Benzo[d][1,3]dioxoyl-5-yl)-4-((5-(piperidin-1-yl)thiophen-2-yl)methylene)oxazol-5(4H)-one] | 2.5
COc1cc(C2=NC(=Cc3cccs3)C(=O)O2)ccc1OC(F)F [F102, 2-(4-(Difluoromethoxy)-3-methoxyphenyl)-4-(thiophen-2-ylmethylene)oxazol-5 (4H)-one] | 2.7
CCc1sc(C2=NC(=Cc3cccs3)C(=O)O2)cc1C [F103, 2-(5-Ethyl-4-methylthiophen-2-yl)-4-(thiophen-2-ylmethylene)oxazol-5(4H)-one] | 3.7
COc1cccc(C2=NC(=Cc3cccs3)C(=O)O2)c1 [F104, 2-(3-Methoxyphenyl)-4-(thiophen-2-ylmethylene)oxazol-5(4H)-one] | 3.5
CN(C)c1ccc(C=C2N=C(c3ccc4ccccc4c3)OC2=O)s1 [F105, 4-((5-(Dimethylamino)thiophen-2-yl)methylene)-2-(naphthalen-2-yl)oxazol-5(4H)-one] | 3.1
CC(=O)Nc1ccc(C2=NC(=Cc3cc(Br)cs3)C(=O)O2)cc1 [F106, N-(4-(4-((4-bromothiophen-2-yl)methylene)-5-oxo-4,5-dihydrooxazol-2-yl)phenyl)acetamide] | 3.3
CC(=O)Nc1ccc(C2=NC(=Cc3ccc(Br)s3)C(=O)O2)cc1 [F107, N-(4-(4-((5-bromothiophen-2-yl)methylene)-5-oxo-4,5-dihydrooxazol-2-yl)phenyl)acetamide] | 2.9
CC(=O)Nc1ccc(C2=NC(=Cc3ccc(N(C)C)s3)C(=O)O2)cc1 [F108, N-(4-(4-((5-(dimethylamino)thiophen-2-yl)methylene)-5-oxo-4,5-dihydrooxazol-2-yl)phenyl) acetamide] | 2.3
O=C1OC(c2ccc(OCc3ccccc3)cc2)=NC1=Cc1cccs1 [F109, 2-(4-(Benzyloxy)phenyl)-4-(thiophen-2-ylmethylene)oxazol-5(4H)-one] | 2.4
O=C1OC(/C=C/c2ccccc2)=NC1=Cc1cccs1 [F110, 2-((E)-styryl)-4-(thiophen-2-ylmethylene)oxazol-5 (4H)-one] | 2.9
Cc1ccc(C2=NC(=Cc3cccs3)C(=O)O2)s1 [F111, 2-(5-methylthiophen-2-yl)-4-(thiophen-2-ylmethylene)oxazol-5 (4H)-one] | 30.8
CCN(CC)S(=O)(=O)c1cccc(C2=NC(=Cc3cccs3)C(=O)O2)c1 [F112, N,N-diethyl-3-(5-oxo-4-(thiophen-2-ylmethylene)-4,5-dihydrooxazol-2-yl)benzene sulfonamide] | 3.1
COc1ccccc1C1=NC(=Cc2sc3nc(C)nc(C)c3c2C)C(=O)O1 [F113, 2-(2-Methoxyphenyl)-4-((2,4,5-trimethylthieno[2,3-d]pyrimidin-6-yl)methylene) oxazol-5(4H)-one] | 3.5
COc1ccccc1C1=NC(=Cc2ccc(N(C)C)s2)C(=O)O1 [F114, 4-((5-(Dimethylamino)thiophen-2-yl)methylene)-2-(2-methoxyphenyl)oxazol-5(4H)-one] | 3.9
Cc1ccc(C=C2N=C(c3cccs3)OC2=O)s1 [F115, 4-((5-Methylthiophen-2-yl)methylene)-2-(thiophen-2-yl)oxazol-5(4H)-one] | 2.8

SMILES | inhibition at 30 µM [%]
CN(C)S(=O)(=O)c1cccc(C2=NC(=Cc3cccs3)C(=O)O2)c1 [F116, N,N-dimethyl-3-(5-oxo-4-(thiophen-2-ylmethylene)-4,5-dihydrooxazol-2-yl) benzenesulfonamide] | 2.6
COc1ccccc1C1=NC(=Cc2ccc(Br)s2)C(=O)O1 [F117, 4-((5-Bromothiophen-2-yl)methylene)-2-(2-methoxyphenyl)oxazol-5(4H)-one] | 2.3
O=C1OC(c2cccs2)=NC1=Cc1ccc(Br)s1 [F118, 4-((5-Bromothiophen-2-yl)methylene)-2-(thiophen-2-yl)oxazol-5(4H)-one] | 2.1
Cc1ccc(C=C2N=C(c3ccc(C)s3)OC2=O)s1 [F119, 2-(5-methylthiophen-2-yl)-4-((5-methylthiophen-2-yl)methylene)oxazol-5 (4H)-one] | 1.7
O=C1OC(c2cccs2)=NC1=Cc1ccc(N2CCCCC2)s1 [F120, 4-((5-(Piperidin-1-yl)thiophen-2-yl)methylene)-2-(thiophen-2-yl)oxazol-5 (4H)-one] | 1.9
O=C1OC(c2ccccc2OC(F)F)=NC1=Cc1ccc(Br)s1 [F121, 4-((5-Bromothiophen-2-yl)methylene)-2-(2-(difluoromethoxy)phenyl)oxazol-5(4H)-one] | 3.4
CC(C)(C)c1ccc(C2=NC(=Cc3ccccc3OC(F)F)C(=O)O2)cc1 [F122, 2-(4-(tert-butyl)phenyl)-4-(2-(difluoromethoxy)benzylidene)oxazol-5(4H)-one] | 3.8
O=C1OC(c2ccc3ccccc3c2)=NC1=Cc1cnn(Cc2ccccc2Cl)c1 [F123, 4-((1-(2-Chlorobenzyl)-1H-pyrazol-4-yl)methylene)-2-(naphthalen-2-yl)oxazol-5 (4H)-one] | 2.4
CC(C)(C)c1ccc(C2=NC(=Cc3cnn(-c4ccccc4)c3)C(=O)O2)cc1 [F124, 2-(4-(tert-butyl)phenyl)-4-((1-phenyl-1H-pyrazol-4-yl)methylene)oxazol-5 (4H)-one] | 2
COc1ccccc1C1=NC(=Cc2cnn(C)c2)C(=O)O1 [F125, 2-(2-methoxyphenyl)-4-((1-methyl-1H-pyrazol-4-yl)methylene)oxazol-5(4H)-one] | 1
Cc1ccc(C=C2N=C(c3ccc(S(=O)(=O)NC(C)(C)C)cc3)OC2=O)o1 [F126, N-(tert-butyl)-4-(4-((5-methylfuran-2-yl)methylene)-5-oxo-4,5-dihydrooxazol-2-yl) benzenesulfonamide] | 2.5
CCN(CC)S(=O)(=O)c1ccc(C2=N/C(=C3\C=CC=CN3C)C(=O)O2)cc1 [F127, N,N-diethyl-4-(4-(1-methylpyridin-2(1H)-ylidene)-5-oxo-4,5-dihydrooxazol-2-yl)benzenesulfonamide] | 3.6
COc1ccccc1C1=NC(=Cc2ccc(OCC(N)=O)cc2)C(=O)O1 [F128, 2-(4-((2-(2-methoxyphenyl)-5-oxooxazol-4(5H)-ylidene)methyl)phenoxy)acetamide] | 1.9
CC(=O)Nc1ccc(C=C2N=C(c3ccc(OC(C)C)cc3)OC2=O)cc1 [F129, N-(4-((2-(4-isopropoxyphenyl)-5-oxooxazol-4(5H)-ylidene)methyl)phenyl)acetamide] | 2.3
CC(C)Oc1ccc(C2=NC(=Cc3cnn(Cc4ccccc4)c3)C(=O)O2)cc1 [F130, 4-((1-Benzyl-1H-pyrazol-4-yl)methylene)-2-(4-isopropoxyphenyl)oxazol-5 (4H)-one] | 2.7
CCN(CC)S(=O)(=O)c1cccc(C2=NC(=Cc3cnn(C)c3)C(=O)O2)c1 [F131, N,N-diethyl-3-(4-((1-methyl-1H-pyrazol-4-yl)methylene)-5-oxo-4,5-dihydrooxazol-2-yl)benzenesulfonamide] | 2.1
O=C1OC(c2ccccc2I)=NC1=Cc1ccc(-n2cncn2)cc1 [F132, 4-(4-(1H-1,2,4-thiazol-1-yl)benzylidene)-2-(2-iodophenyl)oxazol-5(4H)-one] | 3.9
COc1cc(C=C2N=C(c3ccccc3OC)OC2=O)ccc1OCc1c(C)noc1C [F133, 4-(4-((3,5-Dimethylisoxazol-4-yl)methoxy)-3-methoxybenzylidene)-2-(2-methoxyphenyl)oxazol-5 (4H)-one] | 4.1
CC(=O)Nc1ccc(C2=NC(=Cc3ccc(-n4cncn4)cc3)C(=O)O2)cc1 [F134, N-(4-(4-(4-(1H-1,2,4-thiazol-1-yl)benzylidene)-5-oxo-4,5-dihydrooxazol-2-yl)phenyl)acetamide] | 3.4
